Source: patent US10316017B2, “COT modulators and methods of use thereof” (Gilead Sciences, Inc., priority 2015, dated 2019)
pEC50, pIC50: −log10 of the molar value.

Experiments:
[1] = target: T1, human Cot catalytic domain (30-397 amino acids) (Homo sapiens, UniProt P41279); experiment: High Throughput Cot Biochemical Assay (KinEASE TR-FRET); conditions: Cot KinEASE TR-FRET (HTRF) biochemical assay, 400 μM ATP; read-out: IC50 HTRF
T1 construct: Purified recombinant human Cot catalytic domain (30-397 amino acids) was purchased from Cama Biosciences; purchased Cama Biosciences (so in the source)
T1 sequence (P41279 30-397): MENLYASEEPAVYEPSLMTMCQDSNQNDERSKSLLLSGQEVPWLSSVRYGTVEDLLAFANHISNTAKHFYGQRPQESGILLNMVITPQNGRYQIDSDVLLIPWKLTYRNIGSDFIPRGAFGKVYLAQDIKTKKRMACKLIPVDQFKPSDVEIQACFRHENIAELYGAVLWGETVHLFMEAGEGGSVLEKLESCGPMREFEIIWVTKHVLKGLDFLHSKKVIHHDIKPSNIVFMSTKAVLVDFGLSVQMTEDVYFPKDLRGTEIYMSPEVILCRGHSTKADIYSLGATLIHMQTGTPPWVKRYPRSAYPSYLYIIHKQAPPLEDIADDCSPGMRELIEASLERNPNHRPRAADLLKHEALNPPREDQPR
Procedure, shortened: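 TR-FRET readout: Eu-labeled phospho-specific antibody binds XL665-tagged STK3 peptide after phosphorylation by Cot (aa 30-397, 5 nM). Conditions: 400 μM ATP, 1 μM peptide, MOPS pH 7.0 buffer with MgOAc, DTT, BSA, NP-40, glycerol; 0.1% DMSO.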

[2] = system: TNFα production in LPS-stimulated human monocytes; experiment: Cot Monocyte TNFα Cell Based Assay; conditions: Homo sapiens, Monocyte, TNFα in LPS-stimulated human monocytes; read-out: EC50 TNF
Procedure, shortened: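 TR-FRET read-out of total secreted TNFα, normalized as % control (unstimulated = 0%, LPS-stimulated = 100%). Cells (5,000/well) were exposed to compound 1 h at 37 °C, then to 50 pg/ml LPS for a further 4 h.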

Compound	pIC50 [1]	pEC50 [2]
[2H][C@](Nc1cc(Cl)c2ncc(C#N)c(N[C@@H]3C[C@H]3CC)c2c1)(c1ccc(F)cc1)c1cn(C2CC2)nn1 [Example 155, 8-chloro-6-(((S)-(1-cyclopropyl-1H-1,2,3-triazol-4-yl)(4-fluorophenyl)methyl-d)amino)-4-(((1R,2R)-2-ethylcyclopropyl)amino)quinoline-3-carbonitrile]	7.44	6.46
[2H][C@](Nc1cc(Cl)c2ncc(C#N)c(NC3CC3(C)C)c2c1)(c1ccc(F)cc1)c1cn(C2CC2)nn1 (stereo partly drawn) [Example 156, 8-chloro-6-(((S)-(1-cyclopropyl-1H-1,2,3-triazol-4-yl)(4-fluorophenyl)methyl-d)amino)-4-((2,2-dimethylcyclopropyl)amino)quinoline-3-carbonitrile]	7.52	6.32
[2H][C@](Nc1cc2c(NCC(C)(C)C)c(C#N)cnc2c(C)c1F)(c1ccc(F)cc1)c1cn(C2CC2)nn1 [Example 157, 6-(((1-cyclopropyl-1H-1,2,3-triazol-4-yl)(4-fluorophenyl)methyl-d)amino)-7-fluoro-8-methyl-4-(neopentylamino) quinoline-3-carbonitrile]	5.43	< 5.00
[2H][C@](Nc1cc(Cl)c2ncc(C#N)c(Nc3cccc(Cl)c3C)c2c1)(c1ccc(F)cc1)c1cn(C2CC2)nn1 [Example 159, (S)-8-chloro-4-((3-chloro-2-methylphenyl)amino)-6-(((1-cyclopropyl-1H-1,2,3-triazol-4-yl)(4-fluorophenyl)methyl-d)amino)quinoline-3-carbonitrile]	6.94	5.87
[2H][C@](Nc1cc(Cl)c2ncc(C#N)c(Nc3ccccc3OC)c2c1)(c1ccc(F)cc1)c1cn(C2CC2)nn1 [Example 160, (S)-8-chloro-6-(((1-cyclopropyl-1H-1,2,3-triazol-4-yl)(4-fluorophenyl)methyl-d)amino)-4-((2-methoxyphenyl)amino)quinoline-3-carbonitrile]	6.30	5.49
[2H][C@](Nc1cc(Cl)c2ncc(C#N)c(N[C@H](c3ccccc3)[C@H]3C[C@@H]3C#N)c2c1)(c1ccc(F)cc1)c1cn(C2CC2)nn1 [Example 161, 8-chloro-4-(((S)-((1S,2S)-2-cyanocyclopropyl) (phenyl)methyl)amino)-6-(((S)-(1-cyclopropyl-1H-1,2,3-triazol-4-yl)(4-fluorophenyl)methyl-d)amino) quinoline-3-carbonitrile]	6.03	< 5.00
[2H][C@](Nc1cc(Cl)c2ncc(C#N)c(N[C@H](c3ccccc3)[C@@H]3C[C@H]3C#N)c2c1)(c1ccc(F)cc1)c1cn(C2CC2)nn1 [Example 162, 8-chloro-4-(((S)-((1R,2R)-2-cyanocyclopropyl) (phenyl)methyl)amino)-6-(((S)-(1-cyclopropyl-1H-1,2,3-triazol-4-yl)(4-fluorophenyl)methyl-d)amino)quinoline-3-carbonitrile]	5.10	< 5.00
[2H][C@](Nc1cc(Cl)c2ncc(C#N)c(Nc3cccc(Cl)c3OC)c2c1)(c1ccc(F)cc1)c1cn(C2CC2)nn1 [Example 163, (S)-8-chloro-4-((3-chloro-2-methoxyphenyl)amino)-6-(((1-cyclopropyl-1H-1,2,3-triazol-4-yl)(4-fluorophenyl)methyl-d)amino)quinoline-3-carbonitrile]	8.52	6.77
[2H][C@](Nc1cc(F)c2ncc(C#N)c(N[C@H](CCC#N)c3ccccc3)c2c1)(c1cccc(C#N)c1)c1cn(C2CC2)nn1 [Example 164, 4-(((R)-3-cyano-1-phenylpropyl)amino)-6-(((S)-(3-cyanophenyl)(1-cyclopropyl-1H-1,2,3-triazol-4-yl)methyl-d)amino)-8-fluoroquinoline-3-carbonitrile]	9.00	7.82
[2H][C@](Nc1cc(F)c2ncc(C#N)c(N[C@@H](CCC#N)c3ccccc3)c2c1)(c1cccc(C#N)c1)c1cn(C2CC2)nn1 [Example 165, 4-(((S)-3-cyano-1-phenylpropyl)amino)-6-(((S)-(3-cyanophenyl) (1-cyclopropyl-1H-1,2,3-triazol-4-yl)methyl-d)amino)-8-fluoroquinoline-3-carbonitrile]	5.68	5.20
[2H][C@](Nc1cc(Cl)c2ncc(C#N)c(N[C@H](CCN3CCCCC3)c3ccccc3)c2c1)(c1ccc(F)cc1)c1cn(C2CC2)nn1 [Example 166, 8-chloro-6-(((1-cyclopropyl-1H-1,2,3-triazol-4-yl)(4-fluorophenyl)methyl-d)amino)-4-(((R)-1-phenyl-3-(piperidin-1-yl)propyl)amino)quinoline-3-carbonitrile]	7.21	6.01
[2H][C@](Nc1cc(Cl)c2ncc(C#N)c(N[C@H](CCN3CCCC3)c3ccccc3)c2c1)(c1ccc(F)cc1)c1cn(C2CC2)nn1 [Example 167, 8-chloro-6-(((1-cyclopropyl-1H-1,2,3-triazol-4-yl) (4-fluorophenyl)methyl-d)amino)-4-(((R)-1-phenyl-3-(pyrrolidin-1-yl)propyl)amino) quinoline-3-carbonitrile]	6.77	< 5.00
[2H][C@](Nc1cc(-c2cn[nH]c2)c2ncc(C#N)c(NCC(C)(C)C)c2c1)(c1ccc(F)cc1)c1cn(C2CC2)nn1 [Example 168, (S)-6-(((1-cyclopropyl-1H-1,2,3-triazol-4-yl)(4-fluorophenyl)methyl-d)amino)-4-(neopentylamino)-8-(1H-pyrazol-4-yl)quinoline-3-carbonitrile]	5.69	5.02
[2H][C@](Nc1cc(-c2ccc(NC(C)=O)cc2)c2ncc(C#N)c(NCC(C)(C)C)c2c1)(c1ccc(F)cc1)c1cn(C2CC2)nn1 [Example 169, (S)-N-(4-(3-cyano-6-(((1-cyclopropyl-1H-1,2,3-triazol-4-yl)(4-fluorophenyl)methyl-d)amino)-4-(neopentylamino)quinolin-8-yl)phenyl)acetamide]	6.27	5.54
[2H][C@](Nc1cc(-c2cccnc2)c2ncc(C#N)c(NCC(C)(C)C)c2c1)(c1ccc(F)cc1)c1cn(C2CC2)nn1 [Example 170, (S)-6-(((1-cyclopropyl-1H-1,2,3-triazol-4-yl)(4-fluorophenyl)methyl-d)amino)-4-(neopentylamino)-8-(pyridin-3-yl)quinoline-3-carbonitrile]	7.32	6.25
[2H][C@](Nc1cc(-c2ccccc2)c2ncc(C#N)c(NCC(C)(C)C)c2c1)(c1ccc(F)cc1)c1cn(C2CC2)nn1 [Example 171, (S)-6-(((1-cyclopropyl-1H-1,2,3-triazol-4-yl)(4-fluorophenyl)methyl-d)amino)-4-(neopentylamino)-8-phenylquinoline-3-carbonitrile]	5.02	< 5.00
[2H][C@](Nc1cc(OC)c2ncc(C#N)c(NCC(C)(C)C)c2c1)(c1ccc(F)cc1)c1cn(C2CC2)nn1 [Example 172, (S)-6-(((1-cyclopropyl-1H-1,2,3-triazol-4-yl)(4-fluorophenyl)methyl-d)amino)-8-methoxy-4-(neopentylamino) quinoline-3-carbonitrile]	6.86	5.79
[2H][C@](Nc1cc(Cl)c2ncc(C#N)c(NC(C)(C)CO)c2c1)(c1ccc(F)cc1)c1cn(C2CC2)nn1 [Example 173, (S)-8-chloro-6-(((1-cyclopropyl-1H-1,2,3-triazol-4-yl)(4-fluorophenyl)methyl-d)amino)-4-((1-hydroxy-2-methylpropan-2-yl)amino)quinoline-3-carbonitrile]	6.85	5.73
[2H][C@](Nc1cc(Cl)c2ncc(C#N)c(NC(C)CCO)c2c1)(c1ccc(F)cc1)c1cn(C2CC2)nn1 (stereo partly drawn) [Example 174]	6.08	< 5.00
[2H][C@](Nc1cc(Cl)c2ncc(C#N)c(NC(CC)Cc3ccccc3)c2c1)(c1ccc(F)cc1)c1cn(C2CC2)nn1 (stereo partly drawn) [Example 175, 8-chloro-6-(((S)-(1-cyclopropyl-1H-1,2,3-triazol-4-yl)(4-fluorophenyl)methyl-d)amino)-4-((1-phenylbutan-2-yl)amino)quinoline-3-carbonitrile]	6.55	5.23
[2H][C@](Nc1cc(Cl)c2ncc(C#N)c(NCC3(C(F)(F)F)CC3)c2c1)(c1ccc(F)cc1)c1cn(C2CC2)nn1 [Example 176]	7.08	6.09
[2H][C@](Nc1cc(Cl)c2ncc(C#N)c(NN3CCCCCC3)c2c1)(c1ccc(F)cc1)c1cn(C2CC2)nn1 [Example 177, (S)-4-(azepan-1-ylamino)-8-chloro-6-(((1-cyclopropyl-1H-1,2,3-triazol-4-yl)(4-fluorophenyl)methyl-d)amino)quinoline-3-carbonitrile]	6.43	5.61
[2H][C@](Nc1cc(Cl)c2ncc(C#N)c(NN3CCCCC3)c2c1)(c1ccc(F)cc1)c1cn(C2CC2)nn1 [Example 178, (S)-8-chloro-6-(((1-cyclopropyl-1H-1,2,3-triazol-4-yl)(4-fluorophenyl)methyl-d)amino)-4-(piperidin-1-ylamino) quinoline-3-carbonitrile]	6.96	6.17
[2H][C@](Nc1cc(Cl)c2ncc(C#N)c(NN3CCCC3)c2c1)(c1ccc(F)cc1)c1cn(C2CC2)nn1 [Example 179, (S)-8-chloro-6-(((1-cyclopropyl-1H-1,2,3-triazol-4-yl)(4-fluorophenyl)methyl-d)amino)-4-(pyrrolidin-1-ylamino)quinoline-3-carbonitrile]	6.71	5.64
